Data set [1] deals with T1, MRP2 (Homo sapiens, UniProt Q92887). The data set is described as follows: in vitro.
The target in data set [2] is T2, P-gp (Homo sapiens, UniProt P08183). The data set is described as follows: in vitro. The conditions noted are these: MDCK-MDR1.
For data set [3] the following is noted: ref Allen et al., 2000, Zhanel and Noreddin, 2001, cited from earlier work.
The test system of a further data set is LS-180 cells. The experiment in a line: [14C] erythromycin uptake in treated LS-180 cells. In kind it is cell-based, human. The conditions noted are these: LS-180 cells treated 72hrs; gemifloxacin 2.5, 5, 7.5μM, rifampin 10μM.
Data set [4] has as its target T1, MRP2. The experiment in a line: cell-based.
In data set [5] the target is T2, P-gp. The experiment in a line: cell-based.
Data set [6] concerns the target T2, P-gp. The conditions noted are these: MDCK-MDR1, 150 min.
The subject of data set [7] is MDCKII-MRP2 cells. The data set is described as follows: Cell proliferative. In kind it is cell-based, canine. The conditions noted are these: 150min.
Data set [8] concerns MDCKII-MDR1 cells. The data set is described as follows: ATP assay in MDCKII-MDR1 cells. In kind it is cell-based, canine. The conditions noted are these: 150min.
Data set [9] concerns MDCKII-MDR1 cells. The data set is described as follows: Cell proliferative. In kind it is cell-based, canine. The conditions noted are these: 150min.
The test system of data set [10] is MDCKII-MRP2 cells. The experiment in a line: ATP assay in MDCKII-MRP2 cells. The format is cell-based, canine. The conditions noted are these: 150min.
The target of data set [11] is T2, P-gp. The experiment in a line: Cellular accumulation of calcein-AM in MDCKII-MDR1 cells. The format is cell-based. The conditions noted are these: calcein-AM 0.05μM, 15min, quinidine 100μM, gemifloxacin 250μM.
Where [12] appears, read: all other concentrations (1μM to below 1000μM).
[13] abbreviates: gemifloxacin 1000μM, data not shown.
The mark [14] stands for this setting: all concentrations 1μM to 1000μM except 1000μM.

T1 sequence (Q92887 whole entry): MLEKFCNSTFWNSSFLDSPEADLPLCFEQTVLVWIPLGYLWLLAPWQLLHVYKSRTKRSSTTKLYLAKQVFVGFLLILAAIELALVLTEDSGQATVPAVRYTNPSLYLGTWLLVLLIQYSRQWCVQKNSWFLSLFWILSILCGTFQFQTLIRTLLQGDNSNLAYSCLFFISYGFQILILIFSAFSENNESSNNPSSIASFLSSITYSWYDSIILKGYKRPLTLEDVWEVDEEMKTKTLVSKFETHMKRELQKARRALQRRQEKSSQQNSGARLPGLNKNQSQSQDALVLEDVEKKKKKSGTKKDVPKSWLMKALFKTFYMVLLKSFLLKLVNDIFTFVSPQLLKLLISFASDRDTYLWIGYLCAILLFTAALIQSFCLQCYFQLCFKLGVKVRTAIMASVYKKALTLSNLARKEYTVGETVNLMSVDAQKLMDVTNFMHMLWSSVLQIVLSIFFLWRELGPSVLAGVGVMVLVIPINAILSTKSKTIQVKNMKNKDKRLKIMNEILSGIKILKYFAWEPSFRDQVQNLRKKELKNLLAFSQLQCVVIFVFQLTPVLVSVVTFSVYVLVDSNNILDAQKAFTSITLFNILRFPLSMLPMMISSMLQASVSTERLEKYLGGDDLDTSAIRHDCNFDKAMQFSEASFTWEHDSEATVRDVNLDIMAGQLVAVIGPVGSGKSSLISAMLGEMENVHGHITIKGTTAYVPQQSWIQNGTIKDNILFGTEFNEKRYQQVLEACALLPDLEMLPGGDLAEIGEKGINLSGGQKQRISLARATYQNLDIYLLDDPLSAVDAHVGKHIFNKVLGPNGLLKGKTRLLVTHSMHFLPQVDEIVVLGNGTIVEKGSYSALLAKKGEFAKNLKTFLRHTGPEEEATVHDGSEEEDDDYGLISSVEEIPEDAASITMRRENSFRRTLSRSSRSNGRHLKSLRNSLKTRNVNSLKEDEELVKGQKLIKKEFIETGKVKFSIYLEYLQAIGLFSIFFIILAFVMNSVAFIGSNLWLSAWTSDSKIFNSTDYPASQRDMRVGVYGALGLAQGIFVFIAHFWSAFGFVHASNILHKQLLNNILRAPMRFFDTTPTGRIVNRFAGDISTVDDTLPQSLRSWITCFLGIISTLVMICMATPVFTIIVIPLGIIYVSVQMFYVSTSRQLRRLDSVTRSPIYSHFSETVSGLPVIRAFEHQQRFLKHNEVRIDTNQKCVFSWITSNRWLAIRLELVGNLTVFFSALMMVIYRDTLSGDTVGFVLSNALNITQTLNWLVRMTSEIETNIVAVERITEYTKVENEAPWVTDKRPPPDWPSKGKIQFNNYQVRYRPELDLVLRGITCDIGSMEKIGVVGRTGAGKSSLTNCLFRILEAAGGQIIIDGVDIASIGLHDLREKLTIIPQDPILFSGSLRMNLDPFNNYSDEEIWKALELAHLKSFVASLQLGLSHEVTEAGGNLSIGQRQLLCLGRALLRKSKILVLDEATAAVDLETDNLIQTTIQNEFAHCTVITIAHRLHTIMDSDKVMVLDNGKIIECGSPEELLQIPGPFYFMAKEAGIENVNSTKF
T2 sequence (P08183 whole entry): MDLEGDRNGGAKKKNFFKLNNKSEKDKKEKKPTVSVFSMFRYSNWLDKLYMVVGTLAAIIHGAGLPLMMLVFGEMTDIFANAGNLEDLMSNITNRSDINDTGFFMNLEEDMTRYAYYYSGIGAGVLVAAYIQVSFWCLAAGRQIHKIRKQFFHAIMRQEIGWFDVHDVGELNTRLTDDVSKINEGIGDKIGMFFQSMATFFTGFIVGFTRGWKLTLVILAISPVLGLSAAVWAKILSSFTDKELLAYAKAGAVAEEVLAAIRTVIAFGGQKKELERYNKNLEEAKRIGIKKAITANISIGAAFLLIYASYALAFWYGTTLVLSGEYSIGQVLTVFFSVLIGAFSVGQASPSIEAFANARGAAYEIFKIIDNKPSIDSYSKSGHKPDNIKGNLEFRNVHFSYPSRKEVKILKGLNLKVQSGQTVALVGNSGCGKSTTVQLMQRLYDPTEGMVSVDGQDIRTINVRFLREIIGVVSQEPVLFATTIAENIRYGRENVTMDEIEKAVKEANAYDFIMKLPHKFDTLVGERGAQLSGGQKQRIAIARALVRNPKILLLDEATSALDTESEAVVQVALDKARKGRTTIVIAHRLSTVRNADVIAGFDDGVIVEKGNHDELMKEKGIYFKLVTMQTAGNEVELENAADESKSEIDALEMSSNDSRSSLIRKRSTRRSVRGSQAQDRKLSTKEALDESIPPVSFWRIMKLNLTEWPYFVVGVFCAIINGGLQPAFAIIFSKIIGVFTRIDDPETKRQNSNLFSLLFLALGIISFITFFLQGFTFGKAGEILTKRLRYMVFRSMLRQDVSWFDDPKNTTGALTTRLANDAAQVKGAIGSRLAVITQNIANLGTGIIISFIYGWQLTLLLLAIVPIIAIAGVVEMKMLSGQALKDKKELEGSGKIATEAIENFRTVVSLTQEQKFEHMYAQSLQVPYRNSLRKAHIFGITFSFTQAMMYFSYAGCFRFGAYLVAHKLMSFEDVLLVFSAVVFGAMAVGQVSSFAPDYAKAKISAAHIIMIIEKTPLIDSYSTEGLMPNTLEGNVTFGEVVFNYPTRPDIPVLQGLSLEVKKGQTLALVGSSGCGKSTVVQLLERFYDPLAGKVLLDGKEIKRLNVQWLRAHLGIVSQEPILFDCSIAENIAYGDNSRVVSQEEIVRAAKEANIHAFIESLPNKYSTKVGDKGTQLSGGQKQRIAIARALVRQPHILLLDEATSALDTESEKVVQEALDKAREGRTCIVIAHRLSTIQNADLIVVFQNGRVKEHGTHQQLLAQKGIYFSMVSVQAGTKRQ

As to `CC[C@H]1OC(=O)[C@H](C)[C@@H](O[C@H]2C[C@@](C)(OC)[C@@H](O)[C@H](C)O2)[C@H](C)[C@@H](O[C@@H]2O[C@H](C)C[C@H](N(C)C)[C@H]2O)[C@](C)(O)C[C@@H](C)C(=O)[C@H](C)[C@@H](O)[C@]1(C)O` [[^14C] erythromycin, erythromycin], on MRP2 [1], the Papp A→B at 150 min came to 3.76 ± 1.37 ×10⁻⁶ cm/s, the Papp B→A at 150 min amounted to 18.5 ± 1.94 ×10⁻⁶ cm/s and the efflux ratio at 150 min worked out at 4.93. Also, on P-gp [2], the Papp A→B at 150 min came out at 2.96 ± 0.37 ×10⁻⁶ cm/s, the apparent permeability from basolateral to apical (Papp B→A) at 150 min was 10.6 ± 0.86 ×10⁻⁶ cm/s and the efflux ratio at 150 min turned out to be 3.56.
On to `COc1c(N2CCNC(C)C2)c(F)cc2c(=O)c(C(=O)O)cn(C3CC3)c12` (stereo not drawn) [gatifloxacin], for which the “Absolute (oral) bioavailability” value in data set [3] was 96%.
For the compound `CO/N=C1\CN(c2nc3c(cc2F)c(=O)c(C(=O)O)cn3C2CC2)CC1CN` (stereo not drawn) [gemifloxacin], the “Decrease in cellular accumulation of [14C] erythromycin post treatment” value with LS-180 cells was roughly 20%. The IC50 at MRP2 [4] amounted to 16 ± 2 µM; on P-gp [5], 123 ± 2 µM. In addition, the “Apparent permeability of [14C] erythromycin, AP-BL, in presence of test compound” value on P-gp [6] is reported as 5.24 ± 0.52 × 10-6 cm/sec. The “Apparent permeability of [14C] erythromycin, BL-AP, in presence of test compound” value at P-gp [6] was 7.38 ± 0.72 × 10-6 cm/sec. The “Cytotoxicity (MTS)” value in the data set on MDCKII-MRP2 cells [7] (setting [12]) and in the data set with MDCKII-MDR1 cells [9] (setting [12]) was “non-cytotoxic” throughout. Also, the “Decrease in cell viability (MTS)” value in the data set with MDCKII-MRP2 cells [7] (setting [13]) is recorded as roughly 20%; in the data set with MDCKII-MDR1 cells [9] (setting [13]), roughly 25%. Moreover, the “Time to peak concentration” value in [3] (oral administration) is 0.5 to 2 h. In data set [3], the “Absolute (oral) bioavailability” value was 71%. Moreover, the “Effect on ATP levels compared to control” value with MDCKII-MDR1 cells [8] (setting [14]) and with MDCKII-MRP2 cells [10] (setting [14]) was “did not significantly alter ATP levels” throughout. Besides, the “Increase in ATP level” value with MDCKII-MDR1 cells [8] (setting [13]) is on record as roughly 15%; with MDCKII-MRP2 cells [10] (setting [13]), roughly 10%.
For `C=C[C@H]1C[N@@]2CC[C@H]1C[C@@H]2[C@@H](O)c1ccnc2ccc(OC)cc12` [quinidine], the “Increase in intracellular calcein fluorescence” value at P-gp [11] is “doubled”.
As for `CO[C@H]1/C=C/O[C@@]2(C)Oc3c(C)c(O)c4c(O)c(c(/C=N/N5CCN(C)CC5)c(O)c4c3C2=O)NC(=O)/C(C)=C\C=C\[C@H](C)[C@H](O)[C@@H](C)[C@@H](O)[C@@H](C)[C@H](OC(C)=O)[C@@H]1C` [rifampin], in the data set on LS-180 cells, the “Decrease in cellular accumulation of [14C] erythromycin post treatment” value is on record as roughly 20%.
